# Results reported in ChEMBL document CHEMBL4270561, “Biological activity of doubly modified salinomycin analogs - Evaluation in vitro and ex vivo” (Eur J Med Chem, 2018).
# Calls of active or inactive are those of the source. The calls are words filed in the database; no cut-off is given here.
# Columns and labels:
# [1] = Selectivity index, ratio of IC50 for human MCF10A cells to IC50 for human LoVo cells; type: toxicity; conditions: MCF10A cells versus LoVo cells, read-out: Ratio IC50
# [2] = Selectivity index, ratio of IC50 for human MCF10A cells to IC50 for human MCF7 cells; type: toxicity; conditions: MCF10A cells versus MCF7 cells, read-out: Ratio IC50
# SK-BR-3 [3] = experiment: Antiproliferative activity against human SK-BR-3 cells after 72 hrs by SRB assay; type: functional, cell-based; conditions: SK-BR-3, 72 h
# [4] = Selectivity index, ratio of IC50 for human MCF10A cells to IC50 for human SK-BR-3 cells; type: toxicity; conditions: MCF10A cells versus SK-BR-3 cells, read-out: Ratio IC50
# [5] = Antiproliferative activity against human LoVo/DX cells after 72 hrs by SRB assay; type: functional, cell-based
# LoVo [6] = experiment: Antiproliferative activity against human LoVo cells after 72 hrs by SRB assay; type: functional, cell-based
# [7] = Antiproliferative activity against human ALL5 cells at 10 uM after 120 hrs by MTT assay relative to control; type: functional
# [8] = Selectivity index, ratio of IC50 for human MCF10A cells to IC50 for human JIMT1 cells; type: toxicity; conditions: MCF10A cells versus JIMT1 cells, read-out: Ratio IC50
# [9] = Resistance index, ratio of IC50 for human LoVo/DX cells to IC50 for human LoVo cells; type: functional
# MCF-10A [10] = experiment: Antiproliferative activity against human MCF10A cells after 72 hrs by SRB assay; type: cell-based
# JIMT-1 [11] = experiment: Antiproliferative activity against human JIMT1 cells after 72 hrs by SRB assay; type: functional, cell-based; conditions: JIMT-1, 72 h
# [12] = Selectivity index, ratio of IC50 for human MCF10A cells to IC50 for human LoVo/DX cells; type: toxicity; conditions: MCF10A cells versus LoVo/DX cells, read-out: Ratio IC50
# MCF7 = experiment: Antiproliferative activity against human MCF7 cells after 72 hrs by SRB assay; type: functional, cell-based; conditions: MCF7, 72 h
# [13] = Cell cycle arrest in human ALL5 cells assessed as accumulation at G2/M-phase at 5 times antiproliferative IC50 after 96 hrs by propidium iodide staining based flow cytometry (reference value: 11.1%); type: functional
# [14] = Cell cycle arrest in human ALL5 cells assessed as accumulation at G2/M-phase at 5 times antiproliferative IC50 after 48 hrs by propidium iodide staining based flow cytometry (reference value: 13.2%); type: functional
# MCF-10A [15] = experiment: Antiproliferative activity against human MCF10A cells at 100 ug/ml after 72 hrs by SRB assay relative to control; type: cell-based
# [16] = Cell cycle arrest in human ALL5 cells assessed as accumulation at G0/G1 phase at 5 times antiproliferative IC50 after 48 hrs by propidium iodide staining based flow cytometry (reference value: 69.6%); type: functional
# SK-BR-3 [17] = experiment: Antiproliferative activity against human SK-BR-3 cells at 100 ug/ml after 72 hrs by SRB assay relative to control; type: functional
# [18] = Cell cycle arrest in human ALL5 cells assessed as accumulation at S-phase at 5 times antiproliferative IC50 after 48 hrs by propidium iodide staining based flow cytometry (reference value: 9.82%); type: functional
# [19] = Antiproliferative activity against human ALL5 cells after 120 hrs by MTT assay; type: functional, cell-based; conditions: ALL5, 120 h
# [20] = Cell cycle arrest in human ALL5 cells assessed as accumulation at G0/G1 phase at 5 times antiproliferative IC50 after 24 hrs by propidium iodide staining based flow cytometry (reference value: 79.7%); type: functional
# [21] = Cell cycle arrest in human ALL5 cells assessed as accumulation at G2/M-phase at 5 times antiproliferative IC50 after 24 hrs by propidium iodide staining based flow cytometry (reference value: 7.98%); type: functional
# [22] = Cell cycle arrest in human ALL5 cells assessed as accumulation at G0/G1 phase at 5 times antiproliferative IC50 after 96 hrs by propidium iodide staining based flow cytometry (reference value: 69.8%); type: functional
# [23] = Cell cycle arrest in human ALL5 cells assessed as accumulation at S-phase at 5 times antiproliferative IC50 after 96 hrs by propidium iodide staining based flow cytometry (reference value: 7.52%); type: functional
# [24] = Cell cycle arrest in human ALL5 cells assessed as accumulation at S-phase at 5 times antiproliferative IC50 after 24 hrs by propidium iodide staining based flow cytometry (reference value: 6.76%); type: functional
# [25] = Cell cycle arrest in human ALL5 cells assessed as accumulation at sub-G1 phase at 5 times antiproliferative IC50 after 48 hrs by propidium iodide staining based flow cytometry (reference value: 7.8%); type: functional
# [26] = Cell cycle arrest in human ALL5 cells assessed as accumulation at sub-G1 phase at 5 times antiproliferative IC50 after 96 hrs by propidium iodide staining based flow cytometry (reference value: 12%); type: functional
# [27] = Cell cycle arrest in human ALL5 cells assessed as accumulation at sub-G1 phase at 5 times antiproliferative IC50 after 24 hrs by propidium iodide staining based flow cytometry (reference value: 6.07%); type: functional
# Homo sapiens [28] = species on record: Homo sapiens; experiment: Induction of apoptosis in human ALL5 cells assessed as increase in p53 expression at 0.2 uM up to 96 hrs by immunoblot analysis; type: functional, cell-based
# Homo sapiens [29] = species on record: Homo sapiens; experiment: Induction of apoptosis in human ALL5 cells assessed as increase in cleaved PARP expression at 0.2 uM up to 96 hrs by immunoblot analysis; type: functional, cell-based
# Homo sapiens [30] = species on record: Homo sapiens; experiment: Induction of apoptosis in human ALL5 cells assessed as increase in cleaved PARP expression at 9.5 uM after 96 hrs by immunoblot analysis; type: functional, cell-based
# Homo sapiens [31] = species on record: Homo sapiens; experiment: Induction of apoptosis in human ALL5 cells assessed as increase in p53 expression at 9.5 uM up to 96 hrs by immunoblot analysis; type: functional, cell-based
# LoVo [32] = experiment: Antiproliferative activity against human LoVo cells at 100 ug/ml after 72 hrs by SRB assay relative to control; type: functional
# Homo sapiens [33] = species on record: Homo sapiens; experiment: Induction of apoptosis in human ALL5 cells assessed as increase in cleaved PARP expression at 9.5 uM up to 48 hrs by immunoblot analysis; type: functional, cell-based
# JIMT-1 [34] = experiment: Antiproliferative activity against human JIMT1 cells at 100 ug/ml after 72 hrs by SRB assay relative to control; type: functional
# [35] = Selectivity index, ratio of IC50 for human MCF10A cells to IC50 for human ALL5 cells; type: toxicity; conditions: MCF10A cells versus ALL5 cells, read-out: Ratio IC50
# Breast carcinoma cell [36] = experiment: Ex vivo antitumor activity against patient derived breast cancer tissue assessed as decrease in tumor cell proliferation at 6.2 uM by Ki-67 staining based immunohistochemical analysis; type: functional; conditions: Homo sapiens, TDE = time-dependent effect
# Breast carcinoma cell [37] = experiment: Ex vivo antitumor activity against patient derived breast cancer tissue assessed as increase in number of dead tumor cells at 6.2 uM by H and E staining based immunohistochemical analysis; type: functional; conditions: Homo sapiens, TDE = time-dependent effect
Structure (SMILES),IC50 (SK-BR-3 [3]) [µM],IC50 (LoVo [6]) [µM],IC50 (MCF7) [µM],IC50 [5] [µM],Ratio IC50 [9],IC50 (JIMT-1 [11]) [µM],Activity [13] [%],Activity [14] [%],Activity (MCF-10A [15]),Activity [16] [%],Activity [18] [%],IC50 [19] [µM],Activity [20] [%],Activity [21] [%],Activity [22] [%],Activity [23] [%],Activity [24] [%],Activity [25] [%],Activity [26] [%],Activity [27] [%],also measured
C#CCNC(=O)[C@H](CC)[C@H]1CC[C@H](C)[C@H]([C@@H](C)[C@H](O)[C@H](C)C(=O)[C@H](CC)[C@H]2O[C@]3(C=C[C@@H](O)[C@]4(CC[C@@](C)([C@H]5CC[C@](O)(CC)[C@H](C)O5)O4)O3)[C@H](C)C[C@@H]2C)O1,31,7.7,10,3.1,0.4,29,–,–,–,–,–,–,–,–,–,–,–,–,–,–,selectivity ratio [1]: 8.1; selectivity ratio [2]: 6.2; selectivity ratio [4]: 2; Activity [7]: <=50%; selectivity ratio [8]: 2.1; IC50 (MCF-10A [10]): 62 µM; selectivity ratio [12]: 20
COc1cccc2c1C(=O)c1c(O)c3c(c(O)c1C2=O)C[C@@](O)(C(=O)CO)C[C@@H]3O[C@H]1C[C@H](N)[C@H](O)[C@H](C)O1 [DOXORUBICIN],0.37,0.24,0.26,10,–,0.59,2.16,2.76,–,66.8,3.23,0.04,78.2,8.96,31.6,–,–,27.4,62.7,8.94,Activity (Homo sapiens [28]): Active; Activity (Homo sapiens [29]): Active; IC50 (MCF-10A [10]): 0.58 µM
CCOC(=O)O[C@@H]1C=C[C@]2(O[C@H]([C@@H](CC)C(=O)[C@@H](C)[C@@H](O)[C@H](C)[C@@H]3O[C@@H]([C@@H](CC)C(=O)NCCc4ccc(F)cc4)CC[C@@H]3C)[C@@H](C)C[C@H]2C)O[C@@]12CC[C@@](C)([C@H]1CC[C@](O)(CC)[C@H](C)O1)O2,9.9,4.7,3.9,6.5,1.4,7,1.94,4.85,<= 50%,86.4,1.02,3.7,82.5,6.54,69.4,1.35,4.95,7.78,27.5,6.39,–
CC[C@@H](C(=O)[C@@H](C)[C@@H](O)[C@H](C)[C@@H]1O[C@@H]([C@@H](CC)C(=O)O)CC[C@@H]1C)[C@H]1O[C@]2(C=C[C@@H](O)[C@]3(CC[C@@](C)([C@H]4CC[C@](O)(CC)[C@H](C)O4)O3)O2)[C@H](C)C[C@@H]1C [SALINOMYCIN],0.89,0.44,1.5,0.69,1.6,1.3,–,–,–,–,–,2.4,–,–,–,–,–,–,–,–,selectivity ratio [1]: 105; selectivity ratio [2]: 31; selectivity ratio [35]: 19; Activity (Breast carcinoma cell [36]): Tde; selectivity ratio [4]: 52; Activity (Breast carcinoma cell [37]): Tde; selectivity ratio [8]: 35; IC50 (MCF-10A [10]): 46 µM; selectivity ratio [12]: 67

# Now from value to compound, other results behind:
IC50 (SK-BR-3 [3]) [µM],IC50 (LoVo [6]) [µM],IC50 (MCF7) [µM],Structure (SMILES),IC50 [5] [µM],Ratio IC50 [9],IC50 (JIMT-1 [11]) [µM],Activity [13] [%],Activity [14] [%],Activity (MCF-10A [15]),Activity [16] [%],Activity [18] [%],IC50 [19] [µM],Activity [20] [%],Activity [21] [%],Activity [22] [%],Activity [23] [%],Activity [24] [%],Activity [25] [%],Activity [26] [%],Activity [27] [%],also measured
–,12,7.4,C#CCOC(=O)[C@H](CC)[C@H]1CC[C@H](C)[C@H]([C@@H](C)[C@H](O)[C@H](C)C(=O)[C@H](CC)[C@H]2O[C@]3(C=C[C@@H](OC(C)=O)[C@]4(CC[C@@](C)([C@H]5CC[C@](O)(CC)[C@H](C)O5)O4)O3)[C@H](C)C[C@@H]2C)O1,5.2,0.43,27,10.6,11.5,<= 50%,73.5,5.62,2.6,80.2,9.12,57.7,5.06,5.99,9.68,26.8,5.15,Activity (SK-BR-3 [17]): <=50%
–,8.7,12,CC[C@@H](C(=O)[C@@H](C)[C@@H](O)[C@H](C)[C@@H]1O[C@@H]([C@@H](CC)C(=O)OCC(F)(F)F)CC[C@@H]1C)[C@H]1O[C@]2(C=C[C@@H](OC(C)=O)[C@]3(CC[C@@](C)([C@H]4CC[C@](O)(CC)[C@H](C)O4)O3)O2)[C@H](C)C[C@@H]1C,18,2.1,39,–,–,<= 50%,–,–,–,–,–,–,–,–,–,–,–,Activity [7]: <=50%; Activity (SK-BR-3 [17]): <=50%
–,–,38,C#CCOC(=O)[C@H](CC)[C@H]1CC[C@H](C)[C@H]([C@@H](C)[C@H](O)[C@H](C)C(=O)[C@H](CC)[C@H]2O[C@]3(C=C[C@@H](OC(=O)OCC)[C@]4(CC[C@@](C)([C@H]5CC[C@](O)(CC)[C@H](C)O5)O4)O3)[C@H](C)C[C@@H]2C)O1,8.1,–,–,7.59,8.29,<= 50%,75.6,5.9,1.9,81.2,8.79,67.8,5.03,5.6,10.6,19.8,4.82,Activity (Homo sapiens [30]): Active; Activity (Homo sapiens [31]): Active; Activity (LoVo [32]): <=50%; Activity (Homo sapiens [33]): inactive; Activity (SK-BR-3 [17]): <=50%; Activity (JIMT-1 [34]): <=50%
25,5.2,5,C#CCOC(=O)[C@H](CC)[C@H]1CC[C@H](C)[C@H]([C@@H](C)[C@H](O)[C@H](C)C(=O)[C@H](CC)[C@H]2O[C@]3(C=C[C@@H](OC(=O)NCC)[C@]4(CC[C@@](C)([C@H]5CC[C@](O)(CC)[C@H](C)O5)O4)O3)[C@H](C)C[C@@H]2C)O1,3.4,0.65,7.4,10.9,13.8,<= 50%,61.1,5.8,6.9,78.8,9.7,42,3.67,5.16,19.6,43.6,6.58,–
